Source: paper PMC8219695 (Nature Communications, 2021)
Values joined by “and” are separate entries in the source; they are usually repeats but may differ in a detail not shown here. Equal values may be shown once.

What was measured:
[1] = target: T1, mMOR (Mus musculus, UniProt P42866); test: [125I]BNtxA radioligand competition binding, mouse MOR; conditions: mean ± SEM, n = 3; [125I]BNtxA; read-out: Ki ± SEM mMOR
T1 construct: signal peptide (heterologous, not specified) (N); expressed in transfected cells; pcDNA3.1(+) construct made in house

[2] = system: CD1 mice; test: Tail-flick antinociception in CD1 mice; type: in vivo, mouse; conditions: 5 or 25 mg/kg s.c., CD1 mice, time course
[3] = target: T2, mKOR (Mus musculus, UniProt P33534); test: [125I]BNtxA radioligand competition binding, mouse KOR; conditions: mean ± SEM, n = 3; [125I]BNtxA; read-out: Ki ± SEM mKOR
T2 construct: expressed in transfected cells; membranes

[4] = target: T3, hMOR (Homo sapiens, UniProt P35372); test: CAMYEL BRET cAMP agonist assay at hMOR; type: cell-based; conditions: for cAMP %: hMOR, single replicates, source data Fig 6c, listed as C11-Cl-7OH (23)
T3 construct: expressed in transfected cells; plasmid a gift from Dr. Nevin Lambert

[5] = target: T4, mDOR (Mus musculus, UniProt P32300); test: [125I]BNtxA radioligand competition binding, mouse DOR; conditions: mean ± SEM, n = 3; [125I]BNtxA; read-out: Ki ± SEM mDOR
T4 construct: expressed in transfected cells

[6] = target: hKOR (Homo sapiens, UniProt P41145); test: CAMYEL BRET cAMP agonist assay at hKOR; type: cell-based; conditions: individual replicates, Supplementary Figure 8A source data
[7] = target: T4, mDOR; test: CAMYEL BRET cAMP agonist assay at mDOR; type: cell-based; conditions: for Agonist activity of 7OH analogs at mDOR: single replicate values, Supplementary Figure 7B
[8] = target: T5, rKOR (Rattus norvegicus, UniProt P34975); test: CAMYEL BRET cAMP agonist assay at rKOR; type: cell-based; conditions: individual replicates, Supplementary Figure 8B source data
T5 construct: expressed in transfected cells

Compound: CC[C@@H]1CN2CC[C@@]3(O)C(=Nc4cc(Cl)cc(OC)c43)[C@@H]2C[C@@H]1/C(=C\OC)C(=O)OC [11-Cl-7OH (23), 11-Cl-7OH]
- Ki [1]: 27.1 ± 1.1 nM
- analgesic effect in tail-flick [2]: no analgesic effect
- Ki [3]: 30.7 ± 11.4 nM
- EC50 [4]: 717 nM
- Emax [4]: 23%
- cAMP % ([4]; Log[drug] (M) -5): 24.2611% and 22.8658% and 18.7916% and 30.0534% and 27.3903% and 24.7857% and 23.2679% and 13.839% and 17.3142%
- cAMP % ([4]; Log[drug] (M) -6): 9.687% and 7.44% and 12.4984% and 21.3658% and 16.0104% and 20.3589% and 22.2511% and 5.161% and 10.3498%
- cAMP % ([4]; Log[drug] (M) -7): 10.7608% and 2.692% and 16.2864% and 16.6401% and 9.757% and 17.1458% and 11.7292% and -1.4445% and 4.302%
- cAMP % ([4]; Log[drug] (M) -8): -0.5618% and -5.878% and 6.44% and 1.224% and 16.3686% and 4.4% and 2.431% and 4.114% and 14.2353%
- cAMP % ([4]; Log[drug] (M) -9): 10.2691% and 5.0211% and 7.383% and 19.7872% and -6.277% and -5.837% and 8.258% and 7.437% and 22.4848%
- cAMP % ([4]; Log[drug] (M) -10): 8.636% and -0.2251% and 3.667% and 1.365% and 3.739% and -5.1037% and -3.2997% and -3.028% and 15.0493%
- cAMP % ([4]; Log[drug] (M) -11): 5.568% and -0.09872% and -1.208% and 11.7024% and 0.1582% and 4.468% and 2.344% and 1.001% and -3.345%
- cAMP % ([4]; Log[drug] (M) -13, cAMP inhibition as % of DAMGO): 15.4388% and 3.989% and -0.7984% and 3.857% and -0.6743% and 5.111% and -4.4777% and 4.879% and 4.064%
- Ki [5]: 47.2 ± 2.4 nM
- Agonist activity of 7OH analogs at hKOR ([6]; Log [drug](M) -5): 9.026 and -5.895 and 4.248 and 11.9704 and 8.484 and 2.501 and -3.893 and 6.434 and -2.541
- Agonist activity of 7OH analogs at hKOR ([6]; Log [drug](M) -6): -2.414 and -2.835 and -8.98 and 12.2163 and 1.484 and -5.782 and -0.574 and -6.895 and -9.704
- Agonist activity of 7OH analogs at hKOR ([6]; Log [drug](M) -7): -11.1771 and -3.626 and -0.5883 and -1.763 and -7.04 and -2.623 and -4.522 and -13.931 and 0.01935
- Agonist activity of 7OH analogs at hKOR ([6]; Log [drug](M) -8): 2.99 and -4.136 and 1.141 and -3.765 and -7.282 and -9.586 and -2.533 and -2.303 and 3.7063
- Agonist activity of 7OH analogs at hKOR ([6]; Log [drug](M) -9): -6.592 and -11.4451 and 3.708 and 3.417 and -6.737 and -11.3529 and 17.5943 and 11.6069 and 9.781
- Agonist activity of 7OH analogs at hKOR ([6]; Log [drug](M) -10): -2.387 and -3.9069 and 3.049 and -10.4557 and -1.189 and 2.17 and 4.733 and 0.5961 and 8.633
- Agonist activity of 7OH analogs at hKOR ([6]; Log [drug](M) -11): 8.282 and -7.987 and 6.107 and 1.524 and -1.1871 and -6.8877 and 2.73 and 5.876 and 10.03
- Agonist activity of 7OH analogs at hKOR ([6]; Log [drug](M) -13): 4.46 and -4.721 and 0.2615 and 1.311 and -2.987 and 1.677 and 6.874 and 5.681 and 9.762
- Agonist activity of 7OH analogs at mDOR ([7]; Log[drug] (M) -5): 26.1167 and 29.2367 and 36.3699 and 32.2405 and 24.7678 and 31.8502 and 20.8066 and 14.4196
- Agonist activity of 7OH analogs at mDOR ([7]; Log[drug] (M) -6): 24.5815 and 25.9676 and 37.4358 and 15.5242 and 17.7522 and 18.5933 and 15.1392 and 2.291 and 7.306
- Agonist activity of 7OH analogs at mDOR ([7]; Log[drug] (M) -7): 31.8669 and 29.4684 and 27.3279 and 35.1303 and 15.7738 and 14.2288 and -2.321 and 1.192 and 1.129
- Agonist activity of 7OH analogs at mDOR ([7]; Log[drug] (M) -8): 24.8631 and 32.1589 and 37.1926 and 12.9562 and 15.2093 and 7.166 and 10.5442 and -9.446 and 11.0136
- Agonist activity of 7OH analogs at mDOR ([7]; Log[drug] (M) -9): 33.463 and 29.5442 and 24.9953 and 13.5309 and 13.5578 and 8.893 and 29.4233
- Agonist activity of 7OH analogs at mDOR ([7]; Log[drug] (M) -10): 24.7821 and 18.2952 and 15.7891 and -5.277 and 4.222 and 6.7221 and 13.4439 and 1.454 and 8.443
- Agonist activity of 7OH analogs at mDOR ([7]; Log[drug] (M) -11): 28.0105 and 19.9828 and 19.4476 and 11.3847 and -1.66 and -5.157 and 5.226 and 0.03212 and 8.89
- Agonist activity of 7OH analogs at mDOR ([7]; Log[drug] (M) -13): -1.931 and 4.676 and 0.1543 and -4.31 and 4.156 and 0.5113 and 7.987 and 3.883
- Emax ([7]; mDOR cAMP BRET, positive control DPDPE): very low efficacy
- Agonist activity of 7OH analogs at rKOR ([8]; Log [drug](M) -5): 7.778 and 10.9917 and 16.9019 and -6.188 and -1.8256 and 8.442 and 6.4374 and 16.0399 and 7.566
- Agonist activity of 7OH analogs at rKOR ([8]; Log [drug](M) -6): 8.066 and 4.412 and -3.244 and 6.747 and -4.426 and -2.321 and 10.6533 and 7.813 and 3.403
